Here are results for 21 compounds from patent US20070276025A1, “Indirubin-Type Compounds, Compositions, and Methods for Their Use” (priority 2003, published 2007).

Where two headings read alike, the source gives them in different places. Bounds are passed on as bounds.

For series [1], the target named is T1, AhR (Mus musculus, UniProt P30561).
T1 sequence (P30561 1-848): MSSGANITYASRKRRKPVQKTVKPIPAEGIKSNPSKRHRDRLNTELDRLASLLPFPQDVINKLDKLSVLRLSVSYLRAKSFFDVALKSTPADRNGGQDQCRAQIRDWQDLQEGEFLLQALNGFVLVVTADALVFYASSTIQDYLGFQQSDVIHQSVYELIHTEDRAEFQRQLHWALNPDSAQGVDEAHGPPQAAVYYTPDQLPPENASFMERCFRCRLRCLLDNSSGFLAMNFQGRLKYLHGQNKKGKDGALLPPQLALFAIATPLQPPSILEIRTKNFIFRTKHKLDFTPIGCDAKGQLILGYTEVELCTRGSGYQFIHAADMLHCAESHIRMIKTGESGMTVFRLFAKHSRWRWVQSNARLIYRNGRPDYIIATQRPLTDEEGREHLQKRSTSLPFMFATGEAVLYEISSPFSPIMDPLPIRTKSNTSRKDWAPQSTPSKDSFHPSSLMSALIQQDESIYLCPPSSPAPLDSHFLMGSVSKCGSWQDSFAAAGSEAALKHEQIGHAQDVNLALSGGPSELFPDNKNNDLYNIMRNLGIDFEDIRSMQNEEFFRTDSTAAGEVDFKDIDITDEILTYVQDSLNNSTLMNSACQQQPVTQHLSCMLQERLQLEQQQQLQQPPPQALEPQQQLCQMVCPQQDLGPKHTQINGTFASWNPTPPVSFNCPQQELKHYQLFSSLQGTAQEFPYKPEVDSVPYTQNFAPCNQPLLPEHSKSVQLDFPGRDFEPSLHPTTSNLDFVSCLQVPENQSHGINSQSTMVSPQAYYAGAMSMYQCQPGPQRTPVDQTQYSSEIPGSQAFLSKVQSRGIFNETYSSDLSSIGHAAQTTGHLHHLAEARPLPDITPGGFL
The following applies: read-out: EC50 AhR (hepatoma cell line); Table 4; EGFP at 24 hours.

The next series addresses CDK1/cyclin B. Description: CDK1/cyclin B kinase assay (histone H1, 15 μM ATP). The series is classed as biochemical, starfish (Marthasterias glacialis).
The target of another series is CDK5/p25 (Homo sapiens, UniProt Q00535). Kind of series: CDK5/p25 kinase assay (histone H1, 15 μM ATP). The format is biochemical, mammalian.
For series [2], the target named is T2, AhR (Homo sapiens, UniProt P35869). Kind of series: Yeast AhR reporter assay (β-galactosidase). Particulars: read-out: EC50 AhR (yeast); Table 4; * = inactive at the indicated highest concentration tested. Background: A reporter such as luciferase makes a cellular process visible.
The next series has as its target GSK-3α/β. Description: GSK-3α/β kinase assay (GS-1 peptide, 15 μM ATP). The series is classed as biochemical, porcine.
Series [3] deals with T2, AhR.
Series [4] is described as follows: Solubility (qualitative remark). Particulars: relative to parent indirubins / 3′-oximes.
Where [5] appears, read: Table 4, read-out: IC50 CDK1/cycin B.
[6] abbreviates: Table 5, read-out: IC50 CDK1/cyclin B.
Where [7] appears, read: Table 5, read-out: IC50 CDK5/p25.
[8] abbreviates: Table 1, read-out: IC50 CDK5/p25.
Setting [9] is: Table 5, read-out: IC50 GSK-3α/β.
[10] abbreviates: Table 7, GSK-3, read-out: IC50exp.
[11] abbreviates: Table 1, read-out: IC50 GSK-3 α/β.
[12] abbreviates: Table 1, read-out: IC50 CDK1/cyclin B.

T2 sequence (P35869 11-848): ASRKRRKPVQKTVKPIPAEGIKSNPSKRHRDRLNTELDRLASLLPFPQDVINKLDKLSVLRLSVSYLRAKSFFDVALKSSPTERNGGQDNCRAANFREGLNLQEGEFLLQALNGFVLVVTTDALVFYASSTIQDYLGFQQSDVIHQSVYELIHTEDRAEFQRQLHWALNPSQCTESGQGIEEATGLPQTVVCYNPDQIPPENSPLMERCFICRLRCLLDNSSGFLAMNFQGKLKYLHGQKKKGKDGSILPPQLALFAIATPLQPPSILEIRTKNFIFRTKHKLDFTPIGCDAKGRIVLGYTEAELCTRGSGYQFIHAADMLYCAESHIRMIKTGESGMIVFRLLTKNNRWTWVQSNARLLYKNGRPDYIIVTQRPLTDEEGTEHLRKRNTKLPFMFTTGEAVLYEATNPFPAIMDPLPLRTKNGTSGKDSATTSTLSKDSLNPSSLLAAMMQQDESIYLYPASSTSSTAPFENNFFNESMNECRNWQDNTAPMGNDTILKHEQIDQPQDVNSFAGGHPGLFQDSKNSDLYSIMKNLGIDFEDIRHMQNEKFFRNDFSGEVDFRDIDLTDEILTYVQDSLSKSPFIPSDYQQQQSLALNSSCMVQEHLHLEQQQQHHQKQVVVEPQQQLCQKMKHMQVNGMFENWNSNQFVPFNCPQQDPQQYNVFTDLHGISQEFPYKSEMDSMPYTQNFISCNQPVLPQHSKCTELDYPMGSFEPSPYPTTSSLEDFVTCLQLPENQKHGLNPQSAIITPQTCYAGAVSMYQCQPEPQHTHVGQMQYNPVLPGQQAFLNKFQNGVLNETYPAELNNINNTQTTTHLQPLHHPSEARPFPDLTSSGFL
T2 sequence (P27540 whole entry partner): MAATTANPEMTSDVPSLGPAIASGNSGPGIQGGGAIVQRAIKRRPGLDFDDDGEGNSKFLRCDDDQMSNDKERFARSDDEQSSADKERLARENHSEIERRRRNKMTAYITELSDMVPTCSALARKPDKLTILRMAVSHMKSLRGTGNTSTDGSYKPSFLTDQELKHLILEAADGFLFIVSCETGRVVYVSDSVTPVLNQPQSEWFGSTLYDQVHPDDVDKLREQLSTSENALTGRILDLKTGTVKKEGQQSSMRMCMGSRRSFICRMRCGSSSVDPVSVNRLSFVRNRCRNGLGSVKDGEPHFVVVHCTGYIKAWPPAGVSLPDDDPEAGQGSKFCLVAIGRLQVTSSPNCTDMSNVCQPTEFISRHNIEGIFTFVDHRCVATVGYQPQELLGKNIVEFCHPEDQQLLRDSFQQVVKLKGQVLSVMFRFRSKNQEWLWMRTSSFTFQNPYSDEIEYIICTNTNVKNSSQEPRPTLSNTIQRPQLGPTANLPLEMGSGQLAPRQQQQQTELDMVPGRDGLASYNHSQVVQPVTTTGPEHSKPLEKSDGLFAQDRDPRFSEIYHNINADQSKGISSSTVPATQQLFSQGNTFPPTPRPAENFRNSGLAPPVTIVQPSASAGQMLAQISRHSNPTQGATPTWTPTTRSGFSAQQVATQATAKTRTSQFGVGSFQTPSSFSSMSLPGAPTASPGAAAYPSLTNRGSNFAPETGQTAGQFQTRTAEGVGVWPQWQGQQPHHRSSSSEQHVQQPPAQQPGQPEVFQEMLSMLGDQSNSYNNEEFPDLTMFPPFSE
Sequence of CDK5/p25 (Q00535 whole entry, species assumed): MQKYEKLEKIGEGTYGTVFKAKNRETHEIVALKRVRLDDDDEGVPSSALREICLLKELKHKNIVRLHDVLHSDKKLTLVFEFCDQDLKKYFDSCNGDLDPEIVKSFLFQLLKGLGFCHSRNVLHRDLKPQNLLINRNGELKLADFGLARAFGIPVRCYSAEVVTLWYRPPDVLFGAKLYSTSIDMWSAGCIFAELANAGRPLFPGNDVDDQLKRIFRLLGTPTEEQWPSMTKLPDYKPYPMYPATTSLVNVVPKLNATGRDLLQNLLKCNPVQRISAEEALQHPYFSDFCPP
Sequence of CDK5/p25 (Q15078 99-307 partner limits assumed, species assumed): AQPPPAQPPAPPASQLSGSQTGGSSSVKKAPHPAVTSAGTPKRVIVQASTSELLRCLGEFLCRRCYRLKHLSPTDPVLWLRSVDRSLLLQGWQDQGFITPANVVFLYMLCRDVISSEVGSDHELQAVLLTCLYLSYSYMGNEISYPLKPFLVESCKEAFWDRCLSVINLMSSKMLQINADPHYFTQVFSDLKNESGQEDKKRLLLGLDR

Consider 6-Chloroindirubin [5d], for which the EC50 (as a rule, the midpoint of the concentration-response curve) worked out at 7 nM on AhR [1] and 30 nM at AhR [2]. Besides, the IC50 on CDK1/cyclin B (setting [5]), at CDK1/cyclin B (setting [6]) and at CDK5/p25 (setting [7]) was over 100 µM throughout.

In the case of `O=C1Nc2cc(Br)ccc2C1=C1Nc2ccccc2C1=O` [5a, 6-Bromoindirubin], the results for the EC50 at AhR [1] and on AhR [2] were 8 nM and 20 nM, respectively. Further, the IC50 on CDK5/p25 (setting [8]) and at CDK5/p25 (setting [7]) was 53 µM in each case.

In the case of `O=C1Nc2cc(I)ccc2/C1=C1/Nc2ccccc2C1=O` [5c, 6-Iodoindirubin], the IC50 at GSK-3α/β (Table 4, read-out: IC50 GSK-3) was 55 nM; on GSK-3α/β (setting [9]), 55 nM; at GSK-3α/β (setting [10]), 55 nM; on CDK1/cyclin B (setting [5]) it was 1.6 µM; on CDK1/cyclin B (setting [6]), 1.6 µM; at CDK5/p25 (setting [7]) it was 5.3 µM. In addition, the EC50 on AhR [1] was determined as 17 nM; on AhR [2], 40 nM.

As for `O=C1Nc2ccccc2/C1=C1/Nc2ccccc2C1=O` [5h, indirubin], the values for the EC50 on AhR [1] and on AhR [3] were 59 nM and 6 nM, respectively.

For `O=C1Nc2cc(I)ccc2C1=C1Nc2ccccc2C1=NO` [7c, 6-Iodoindirubin-3′-oxime], the EC50 at AhR [1] was 440 nM; on AhR [2], over 100 nM. The IC50 on CDK5/p25 (setting [7]) was 0.3 µM.

For the compound `O=C1Nc2cc(Cl)ccc2C1=C1Nc2ccccc2C1=NO` [7d, 6-Chloroindirubin-3′-oxime], the IC50 at GSK-3α/β (Table 4, read-out: IC50 GSK-3) was determined as 20 nM; on GSK-3α/β (setting [9]), 20 nM; on GSK-3α/β (setting [10]), 20 nM; on CDK1/cyclin B (setting [5]) it was 0.65 µM; on CDK1/cyclin B (setting [6]), 0.65 µM; on CDK5/p25 (setting [7]), 0.1 µM. Moreover, the EC50 at AhR [1] was determined as 200 nM; on AhR [2] it was 4 nM.

Consider `CC(=O)ON=C1C(=C2C(=O)Nc3cc(Br)c(C)cc32)Nc2ccccc21` [8f, 6-Bromo-5-methylindirubin-3′-acetoxime], for which the IC50 turned out to be 7 nM on GSK-3α/β (setting [9]), 7 nM on GSK-3α/β (setting [10]), 31 µM at CDK1/cyclin B (setting [6]) and 30 µM at CDK5/p25 (setting [7]).

In the case of `CC(=O)ON=C1C(=C2C(=O)Nc3cc(Br)c([N+](=O)[O-])cc32)Nc2ccccc21` [8g, 6-Bromo-5-nitroindirubin-3′-acetoxime], the IC50 on GSK-3α/β (setting [9]) came to 6 nM; on GSK-3α/β (setting [10]), 6 nM; at CDK1/cyclin B (setting [6]) it was 11 µM; at CDK5/p25 (setting [7]), 31 µM.

Take `C=Cc1ccc2c(c1)NC(=O)C2=C1Nc2ccccc2C1=NOC(C)=O` [8i, 6-vinylindirubin-3′-acetoxime]: the results for the IC50 at GSK-3α/β (setting [9]), at CDK1/cyclin B (setting [6]) and at CDK5/p25 (setting [7]) were 65 nM, 1.6 µM and 0.4 µM, respectively.

As to `O=C1Nc2ccccc2/C1=C1/Nc2cc(Br)ccc2C1=O` [12a, 6′-Bromoindirubin], the IC50 on GSK-3α/β (setting [11]) was 22000 nM; at GSK-3α/β (Table 4, read-out: IC50 GSK-3), 22000 nM; at GSK-3α/β (setting [9]) it was 22000 nM; on GSK-3α/β (setting [10]), 22000 nM; on CDK1/cyclin B (setting [12]) it was over 100 µM; at CDK1/cyclin B (setting [5]), over 100 µM. For the same compound, the IC50 on CDK1/cyclin B (setting [6]), on CDK5/p25 (setting [8]) and at CDK5/p25 (setting [7]) was over 100 µM throughout. Moreover, the EC50 at AhR [1] came out at 1200 nM; on AhR [2], 100 nM.

With `O=C1Nc2cc(Br)ccc2/C1=C1/Nc2cc(Br)ccc2C1=O` [12b, 6,6′-Dibromoindirubin], the IC50 was 4500 nM at GSK-3α/β (setting [11]); 4500 nM on GSK-3α/β (Table 4, read-out: IC50 GSK-3); 4500 nM on GSK-3α/β (setting [9]); 4500 nM on GSK-3α/β (setting [10]); 4500 nM at GSK-3α/β (read-out: IC50 with GSK-3); at least 100 µM on CDK1/cyclin B (setting [12]). Also, the IC50 at CDK1/cyclin B (setting [5]), at CDK1/cyclin B (setting [6]), at CDK5/p25 (setting [8]), on CDK5/p25 (setting [7]) and on CDK5/p25 (read-out: IC50 with CDK5) was over 100 µM each time. Further, the EC50 at AhR [1] is over 10000 nM.

As to `CN1C(=O)C(=C2Nc3ccccc3C2=O)c2ccc(Br)cc21` [12c, 6-Bromo-1-methylindirubin], the IC50 was over 100000 nM on GSK-3α/β (setting [11]); over 100000 nM at GSK-3α/β (Table 4, read-out: IC50 GSK-3); over 100000 nM on GSK-3α/β (setting [9]); over 100 µM at CDK1/cyclin B (setting [5]); over 100 µM at CDK1/cyclin B (setting [6]); over 100 µM at CDK5/p25 (setting [8]). Also, the IC50 on CDK5/p25 (setting [7]) was over 100 µM. Besides, the EC50 was 50 nM at AhR [1] and at least 100 nM at AhR [2].

`CN1C(=O)/C(=C2\Nc3ccccc3C2=O)c2ccccc21` [12d, 1-Methylindirubin]: the IC50 on GSK-3α/β (Table 4, read-out: IC50 GSK-3) is over 100000 nM; on GSK-3α/β (setting [9]) it was over 100000 nM; on CDK1/cyclin B (setting [5]), over 100 µM; on CDK1/cyclin B (setting [6]) it was over 100 µM; on CDK5/p25 (setting [7]) it was over 100 µM. In addition, the EC50 is 830 nM at AhR [1] and 6 nM at AhR [2].

For `O=C1Nc2cc(Br)ccc2C1=C1Nc2cc(Br)ccc2C1=NO` [13b, 6,6′-dibromo-indirubin-3′-oxime], the IC50 is 120 nM at GSK-3α/β (setting [11]); 120 nM on GSK-3α/β (setting [9]); 120 nM on GSK-3α/β (setting [10]); 17 µM on CDK1/cyclin B (setting [12]); 17 µM at CDK1/cyclin B (setting [6]); 1.3 µM on CDK5/p25 (setting [8]). In addition, the IC50 at CDK5/p25 (setting [7]) is 1.3 µM. Moreover, the “solubility (in words)” value in series [4] is listed as “increased solubility”.

In the case of `O=C1Nc2cccc(Cl)c2/C1=C1/Nc2ccccc2C1=O` [compound 6, 4-Chloroindirubin], the IC50 on GSK-3α/β (Table 4, read-out: IC50 GSK-3) is over 100000 nM; on GSK-3α/β (setting [9]) it was over 100000 nM; at CDK1/cyclin B (setting [5]) it was 10 µM; at CDK1/cyclin B (setting [6]) it was 10 µM; on CDK5/p25 (setting [7]), 10 µM. Also, the values for the EC50 at AhR [1] and at AhR [2] were 310 nM and over 100 nM, respectively.

Consider `Cc1ccc2c(c1)/C(=C1/Nc3ccccc3C1=O)C(=O)N2` [compound 15, 5-methyl-indirubin, reference compound], for which the IC50 at GSK-3α/β (Table 4, read-out: IC50 GSK-3) came out at 62 nM; at GSK-3α/β (setting [10]), 62 nM; on CDK1/cyclin B (read-out: IC50 CDK1/cycin B), 0.28 µM. For the same compound, the 50% effective concentration (EC50) is 25 nM at AhR [1] and 40 nM at AhR [3].

As for `O=C1Nc2ccc(Br)cc2/C1=C1/Nc2ccccc2C1=O` [compound 16, 5-bromo-indirubin, reference compound], the IC50 on GSK-3α/β (Table 4, read-out: IC50 GSK-3) was found to be 55 nM; at GSK-3α/β (setting [10]), 55 nM; on CDK1/cyclin B (setting [5]) it was 0.23 µM. Moreover, the EC50 on AhR [1] is 7 nM; at AhR [3] it was 35 nM.

Consider `O=C1Nc2ccc(Cl)cc2/C1=C1/Nc2ccccc2C1=O` [compound 17, 5-chloro-indirubin, reference compound], for which the IC50 on GSK-3α/β (Table 4, read-out: IC50 GSK-3) stood at 50 nM; on GSK-3α/β (setting [10]), 50 nM; at CDK1/cyclin B (setting [5]) it was 0.28 µM. Also, the EC50 at AhR [1] is 52 nM; at AhR [3] it was 40 nM.

`O=C1Nc2ccc(I)cc2/C1=C1/Nc2ccccc2C1=O` [compound 18, 5-iodo-indirubin, reference compound]: the concentration giving a half-maximal response (EC50) on AhR [3] came to 30 nM. Further, the IC50 at CDK1/cyclin B (setting [5]) worked out at 0.22 µM.

With `O=C1Nc2ccccc2/C1=C1/Nc2ccc(Br)cc2C1=O` [compound 20, 5′-bromo-indirubin, reference compound], the IC50 on GSK-3α/β (Table 4, read-out: IC50 GSK-3) amounted to 350 nM; at GSK-3α/β (setting [10]), 350 nM; at CDK1/cyclin B (setting [5]) it was 0.51 µM. Moreover, the EC50 on AhR [1] was 51 nM; at AhR [3] it was at least 100 nM.

With `O=C1Nc2ccc(Br)cc2/C1=C1/Nc2ccc(Br)cc2C1=O` [compound 21, 5,5′-dibromo-indirubin, reference compound], the IC50 on GSK-3α/β (Table 4, read-out: IC50 GSK-3) worked out at 250 nM; on GSK-3α/β (setting [10]), 250 nM; at CDK1/cyclin B (setting [5]), 600 µM. Moreover, the EC50 was 47 nM at AhR [1] and over 200 nM at AhR [3].
